Experimental findings from patent publication US8710085B2, “Pyrrolidine-1,2-dicarboxamide derivatives” (Novartis AG, priority 2008, dated 2014) are described below.

The structures appear in SMILES notation.

In data set [1] the target is T1, PI3Kα (Homo sapiens, UniProt P42336).
T1 construct: p110α(21-1068)-His; made in house; host or cells: baculovirus, Tn5 insect cells
The experiment in a line: PI3K KinaseGlo assay, PI3Kα. Format: biochemical. To be noted: KinaseGlo, 10 nM enzyme, 1 μM ATP, 30 mins, room temperature; for IC50: read-out: PI3Ka/IC50. For orientation: Kinase-Glo reads ATP consumption through a luciferase reaction.

Data set [2] deals with T2, PI3Kβ (Homo sapiens, UniProt P42338).
T2 construct: p110β(2-1070)-His; made in house; host or cells: baculovirus, Tn5 insect cells
T2 sequence (P42338 with tags, fused parts or gaps): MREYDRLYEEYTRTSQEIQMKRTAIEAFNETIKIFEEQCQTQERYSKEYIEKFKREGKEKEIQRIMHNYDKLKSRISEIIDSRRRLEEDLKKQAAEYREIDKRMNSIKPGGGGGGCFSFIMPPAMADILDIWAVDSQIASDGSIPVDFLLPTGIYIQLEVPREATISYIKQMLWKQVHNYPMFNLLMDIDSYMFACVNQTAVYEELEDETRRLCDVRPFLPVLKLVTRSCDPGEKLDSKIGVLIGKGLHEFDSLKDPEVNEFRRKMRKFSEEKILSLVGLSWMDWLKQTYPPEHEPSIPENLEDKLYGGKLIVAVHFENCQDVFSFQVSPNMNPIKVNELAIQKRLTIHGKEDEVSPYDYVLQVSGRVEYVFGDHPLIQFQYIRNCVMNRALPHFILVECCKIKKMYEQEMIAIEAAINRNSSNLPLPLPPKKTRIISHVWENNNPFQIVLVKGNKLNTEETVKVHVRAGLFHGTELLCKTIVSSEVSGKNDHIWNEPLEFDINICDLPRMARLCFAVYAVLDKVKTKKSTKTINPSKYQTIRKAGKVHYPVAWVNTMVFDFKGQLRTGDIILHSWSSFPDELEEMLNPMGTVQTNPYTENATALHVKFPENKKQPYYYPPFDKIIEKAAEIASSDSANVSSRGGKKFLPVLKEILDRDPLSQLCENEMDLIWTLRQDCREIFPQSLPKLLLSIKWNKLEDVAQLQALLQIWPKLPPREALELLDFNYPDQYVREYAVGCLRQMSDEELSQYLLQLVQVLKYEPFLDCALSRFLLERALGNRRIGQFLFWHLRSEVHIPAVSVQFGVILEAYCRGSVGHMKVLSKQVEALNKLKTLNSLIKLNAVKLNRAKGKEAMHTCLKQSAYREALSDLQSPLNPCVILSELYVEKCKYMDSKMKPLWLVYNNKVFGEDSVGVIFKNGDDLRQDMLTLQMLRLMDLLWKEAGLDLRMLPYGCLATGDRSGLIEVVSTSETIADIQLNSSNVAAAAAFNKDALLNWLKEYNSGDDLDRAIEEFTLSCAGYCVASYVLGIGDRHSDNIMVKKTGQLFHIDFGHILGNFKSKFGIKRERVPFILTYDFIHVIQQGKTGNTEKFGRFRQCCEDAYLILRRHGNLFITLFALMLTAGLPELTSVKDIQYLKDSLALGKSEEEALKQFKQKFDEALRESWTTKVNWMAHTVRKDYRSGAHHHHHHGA
The experiment in a line: PI3K KinaseGlo assay, PI3Kβ. Format: biochemical. To be noted: KinaseGlo; 25 nM enzyme, 1 μM ATP, 30 mins, room temperature; read-out: PI3Kb/IC50. As to the method:
PI3K KinaseGlo assay: […] of compound dilutions were dispensed onto black 384-well low volume Non Binding Styrene (NBS) plates (Costar Cat. No. NBS#3676). L-a-phosphatidylinositol (PI), provided as 10 mg/ml solution in methanol, was transferred into a glass tube and dried under nitrogen beam. It was then resuspended in 3% OctylGlucoside (OG) by vortexing and stored at 4° C. The KinaseGlo Luminescent Kinase Assay (Promega, Madison/WI, USA) is a homogeneous HTS method of measuring kinase activity by quantifying the amount of ATP remaining in solution following a kinase reaction.
5 μL of a mix of PI/OG with the PI3K subtype were added (Table 1). Kinase reactions were started by addition of 5 μl of ATP-mix containing in a final volume 10 μL 10 mM TRIS-HCl pH 7.5, 3 mM MgCl2, 50 mM NaCl, 0.05% CHAPS, 1 mM DTT and 1 μM ATP, and occurred at room temperature. […] The standard was used as a reference compound and included in all assay plates in the form of 16 dilution points in duplicate.
The PI3Kα, PI3Kβ and PI3Kδ constructs are fusion of p85α iSH2 domain and the respective p110 isoforms. The p85α fragment and p110 isoform genes were generated by PCR from first strand cDNA generated by RT-PCR from commercial RNA from placenta, testis and brain as described below. The PI3Kγ construct was obtained from Roger Williams lab, MRC Laboratory of Molecular Biology, Cambridge, UK (November, 2003) and is described (Pacold, Michael E.; Suire, Sabine; Perisic, Olga; Lara-Gonzalez, Samuel; Davis, Colin T.; Walker, Edward H.; Hawkins, Phillip T.; Stephens, Len; Eccleston, John F.; Williams, Roger L. Crystal structure and functional analysis of Ras binding to its effector phosphoinositide 3-kinase gamma. Cell (2000), 103(6), 931-943).
BV949: PCR products for the inter SH2 domain (iSH2) of the p85 PI3Kα, PI13Kβ and PI3Kδ subunit and for the full-length p110β subunit were generated and fused by overlapping PCR. […] The p11013 fragment was obtained by PCR using as template a p110β clone (from unknown source that was sequence verified) using primers gwG130-p04 (5′-[…]-[…]-3′) (SEQ ID NO: 9) which contains linker sequences and the 5′ end of p110β and gwG130-p06 (5′-[…]-[…]-3′) (SEQ ID NO: 10) which contains sequences of the 3′ end of p110-β fused to a Histidine tag. […] This final product was recombined in a Gateway (Invitrogen) […] into the donor vector pDONR201 (Invitrogen) to generate the ORF253 entry clone. This clone was verified by sequencing and used in a Gateway LR reaction (Invitrogen) to transfer the insert into the Gateway adapted pBlueBac4.5 (Invitrogen) vector for generation of the baculovirus expression vector LR280.
(§1) PI3Kα, PI3Kβ and PI3Kγ were purified in two chromatographic steps: immobilized metal affinity chromatography (IMAC) on a Ni sepharose resin (GE Healthcare) and gel filtration utilizing a Superdex 200 26/60 column (GE Healthcare). All buffers were chilled to 4° C. and lysis was performed chilled on ice. Column fractionation was performed at room temperature. All buffers used to purify PI3Kβ contained 0.05% Triton X100 in addition to what is described below.
The lysate was centrifuged at 45,000 g for 30 minutes, and the supernatant was loaded onto a pre-equilibrated IMAC column (3 mL resin/100 mL lysate). […] Protein was eluted with 20 mM Tris-Cl, pH 7.5, 0.5 M NaCl, 5% glycerol, 250 mM imidazole, 1 mM NaF, 0.1 μg/mL OAA, 5 mM BME, 1× Complete protease inhibitor cocktail—EDTA-free. Pertinent fractions were analyzed by SDS-PAGE and pooled accordingly. The protein was further purified by gel filtration on a Superdex 200 26/60 column equilibrated in 20 mM Tris-Cl, pH 7.5, 0.5 M NaCl, 5% glycerol, 1 mM NaF, 5 mM DTT, 1× Complete protease inhibitor cocktail—EDTA-free. Pertinent fractions were analyzed by SDS-PAGE and pooled accordingly.

Data set [3] concerns the target T3, PI3Kδ (Homo sapiens, UniProt O00329).
T3 construct: p85iSH2(461-568)-GGGGGG-p110δ(2-1044)-His; made in house; host or cells: baculovirus, Tn5 insect cells
Briefly: PI3K KinaseGlo assay, PI3Kδ. The conditions noted are these: 10 nM enzyme, 1 μM ATP, 30 mins, room temperature, read-out: PI3Kd/IC50. Format: biochemical.

For data set [4], the target named is T4, PI3Kγ (Homo sapiens, UniProt P48736, Q459R).
T4 construct: p110γ(Δ143-[Met144-1102])-His; made in house; host or cells: Tn5 insect cells; construct from Roger Williams lab, MRC LMB
T4 sequence (P48736 with tags, fused parts or gaps Q459R): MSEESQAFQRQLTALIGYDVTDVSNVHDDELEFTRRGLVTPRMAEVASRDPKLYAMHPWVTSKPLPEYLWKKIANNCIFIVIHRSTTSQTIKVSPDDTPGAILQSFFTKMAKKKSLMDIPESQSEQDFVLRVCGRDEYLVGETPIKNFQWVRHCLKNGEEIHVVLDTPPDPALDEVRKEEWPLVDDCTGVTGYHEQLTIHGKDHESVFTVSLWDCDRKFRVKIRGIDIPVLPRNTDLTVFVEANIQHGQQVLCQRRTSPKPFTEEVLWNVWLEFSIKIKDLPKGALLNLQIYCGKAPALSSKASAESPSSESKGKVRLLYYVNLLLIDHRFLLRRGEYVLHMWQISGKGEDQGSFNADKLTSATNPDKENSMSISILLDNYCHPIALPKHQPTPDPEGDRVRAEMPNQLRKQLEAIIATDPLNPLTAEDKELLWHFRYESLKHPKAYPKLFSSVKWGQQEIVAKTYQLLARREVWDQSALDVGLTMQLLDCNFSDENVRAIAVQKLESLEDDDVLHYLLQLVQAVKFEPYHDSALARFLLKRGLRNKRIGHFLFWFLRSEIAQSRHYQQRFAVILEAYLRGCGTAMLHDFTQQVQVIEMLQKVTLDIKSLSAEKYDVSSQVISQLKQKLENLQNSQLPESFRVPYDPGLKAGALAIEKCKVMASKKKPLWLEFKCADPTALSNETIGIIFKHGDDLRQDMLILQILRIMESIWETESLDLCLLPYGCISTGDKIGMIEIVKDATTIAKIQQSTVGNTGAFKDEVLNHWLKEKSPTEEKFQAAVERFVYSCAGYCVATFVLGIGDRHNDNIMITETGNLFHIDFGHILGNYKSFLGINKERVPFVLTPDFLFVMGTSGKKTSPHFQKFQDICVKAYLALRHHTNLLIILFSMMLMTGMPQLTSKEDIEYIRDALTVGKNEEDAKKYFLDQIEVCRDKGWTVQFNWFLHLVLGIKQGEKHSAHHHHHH
Briefly: PI3K KinaseGlo assay, PI3Kγ. Format: biochemical. The conditions noted are these: 150 nM enzyme, 1 μM ATP, 90 mins, room temperature, read-out: PI3Kg/IC50. As to the method:
L-a-phosphatidylinositol (PI), provided as 10 mg/ml solution in methanol, was transferred into a glass tube and dried under nitrogen beam. It was then resuspended in 3% OctylGlucoside (OG) by vortexing and stored at 4° C. The KinaseGlo Luminescent Kinase Assay (Promega, Madison/WI, USA) is a homogeneous HTS method of measuring kinase activity by quantifying the amount of ATP remaining in solution following a kinase reaction.
5 μL of a mix of PI/OG with the PI3K subtype were added (Table 1). Kinase reactions were started by addition of 5 μl of ATP-mix containing in a final volume 10 μL 10 mM TRIS-HCl pH 7.5, 3 mM MgCl2, 50 mM NaCl, 0.05% CHAPS, 1 mM DTT and 1 μM ATP, and occurred at room temperature. […] The standard was used as a reference compound and included in all assay plates in the form of 16 dilution points in duplicate. […]
as §1
The lysate was centrifuged at 45,000 g for 30 minutes, and the supernatant was loaded onto a pre-equilibrated IMAC column (3 mL resin/100 mL lysate). […] Protein was eluted with 20 mM Tris-Cl, pH 7.5, 0.5 M NaCl, 5% glycerol, 250 mM imidazole, 1 mM NaF, 0.1 μg/mL OAA, 5 mM BME, 1× Complete protease inhibitor cocktail—EDTA-free. Pertinent fractions were analyzed by SDS-PAGE and pooled accordingly. The protein was further purified by gel filtration on a Superdex 200 26/60 column equilibrated in 20 mM Tris-Cl, pH 7.5, 0.5 M NaCl, 5% glycerol, 1 mM NaF, 5 mM DTT, 1× Complete protease inhibitor cocktail—EDTA-free. Pertinent fractions were analyzed by SDS-PAGE and pooled accordingly. An equal volume of Dialysis Buffer (20 mM Tris-Cl, pH 7.5, 500 mM NaCl, 50% glycerol, 5 mM NaF, 5 mM DTT) was added to the pool and than dialyzed against Dialysis Buffer two changes (one change overnight). Protein was stored at −20° C.

T3 sequence (O00329 with tags, fused parts or gaps): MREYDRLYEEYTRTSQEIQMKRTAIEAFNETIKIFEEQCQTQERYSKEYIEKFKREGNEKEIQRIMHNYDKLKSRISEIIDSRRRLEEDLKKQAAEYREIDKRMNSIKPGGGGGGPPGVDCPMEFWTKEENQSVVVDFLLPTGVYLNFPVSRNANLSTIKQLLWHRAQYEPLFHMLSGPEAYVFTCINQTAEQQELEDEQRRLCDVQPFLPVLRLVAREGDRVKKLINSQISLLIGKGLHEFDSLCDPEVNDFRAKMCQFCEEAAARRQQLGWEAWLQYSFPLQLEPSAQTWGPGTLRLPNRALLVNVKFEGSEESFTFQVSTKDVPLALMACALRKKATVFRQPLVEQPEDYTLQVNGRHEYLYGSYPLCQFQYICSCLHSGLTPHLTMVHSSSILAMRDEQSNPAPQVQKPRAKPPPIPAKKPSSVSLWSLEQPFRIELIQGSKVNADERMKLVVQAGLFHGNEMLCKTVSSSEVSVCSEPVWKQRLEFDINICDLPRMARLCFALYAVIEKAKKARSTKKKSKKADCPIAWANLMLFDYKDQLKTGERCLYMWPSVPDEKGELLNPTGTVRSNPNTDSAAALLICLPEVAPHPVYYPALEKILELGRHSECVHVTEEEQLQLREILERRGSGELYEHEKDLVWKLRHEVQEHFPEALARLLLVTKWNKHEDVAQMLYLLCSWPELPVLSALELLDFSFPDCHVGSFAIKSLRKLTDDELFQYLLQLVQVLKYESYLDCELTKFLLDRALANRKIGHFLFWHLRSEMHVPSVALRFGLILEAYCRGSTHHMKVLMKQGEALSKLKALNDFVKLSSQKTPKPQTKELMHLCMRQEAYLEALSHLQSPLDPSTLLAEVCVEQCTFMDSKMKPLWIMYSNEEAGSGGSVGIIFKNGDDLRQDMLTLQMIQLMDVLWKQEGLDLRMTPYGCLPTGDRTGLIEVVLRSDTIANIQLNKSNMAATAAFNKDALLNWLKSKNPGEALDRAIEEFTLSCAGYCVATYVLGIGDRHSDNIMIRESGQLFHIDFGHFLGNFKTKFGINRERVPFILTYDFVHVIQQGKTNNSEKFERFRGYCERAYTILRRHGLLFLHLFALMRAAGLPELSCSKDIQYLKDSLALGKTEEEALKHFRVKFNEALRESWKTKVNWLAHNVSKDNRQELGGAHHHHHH
T1 sequence (P42336 with tags, fused parts or gaps): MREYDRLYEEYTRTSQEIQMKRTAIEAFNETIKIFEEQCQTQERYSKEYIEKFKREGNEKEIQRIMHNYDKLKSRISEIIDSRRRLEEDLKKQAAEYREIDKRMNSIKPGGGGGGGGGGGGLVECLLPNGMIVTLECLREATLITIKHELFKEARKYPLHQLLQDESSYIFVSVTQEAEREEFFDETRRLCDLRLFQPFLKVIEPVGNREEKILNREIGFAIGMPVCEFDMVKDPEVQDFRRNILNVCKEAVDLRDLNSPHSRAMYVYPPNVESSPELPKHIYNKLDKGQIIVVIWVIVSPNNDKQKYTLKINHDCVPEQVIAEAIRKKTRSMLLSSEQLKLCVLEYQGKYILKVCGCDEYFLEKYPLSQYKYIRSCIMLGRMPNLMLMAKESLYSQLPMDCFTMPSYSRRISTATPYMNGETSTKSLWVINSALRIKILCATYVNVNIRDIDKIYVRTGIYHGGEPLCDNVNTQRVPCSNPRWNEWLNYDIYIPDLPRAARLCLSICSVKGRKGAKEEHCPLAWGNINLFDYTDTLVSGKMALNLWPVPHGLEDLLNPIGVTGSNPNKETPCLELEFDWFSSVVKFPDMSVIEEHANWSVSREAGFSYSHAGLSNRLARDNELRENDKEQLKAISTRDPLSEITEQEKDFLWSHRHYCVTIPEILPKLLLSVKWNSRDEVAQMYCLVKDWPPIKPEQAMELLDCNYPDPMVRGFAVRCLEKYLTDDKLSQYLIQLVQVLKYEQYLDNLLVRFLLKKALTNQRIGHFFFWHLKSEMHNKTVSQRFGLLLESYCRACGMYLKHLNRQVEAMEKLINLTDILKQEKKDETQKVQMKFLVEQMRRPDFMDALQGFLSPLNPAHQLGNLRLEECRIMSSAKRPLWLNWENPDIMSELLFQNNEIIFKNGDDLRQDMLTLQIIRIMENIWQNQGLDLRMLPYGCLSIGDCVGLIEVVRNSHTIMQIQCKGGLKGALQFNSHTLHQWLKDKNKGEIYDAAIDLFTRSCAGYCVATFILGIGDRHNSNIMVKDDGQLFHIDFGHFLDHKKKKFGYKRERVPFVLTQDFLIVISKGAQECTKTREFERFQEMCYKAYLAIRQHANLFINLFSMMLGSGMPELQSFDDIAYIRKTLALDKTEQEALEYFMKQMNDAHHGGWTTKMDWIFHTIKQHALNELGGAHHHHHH

In the case of `Cc1nc(NC(=O)N2CCC[C@H]2C(N)=O)sc1-c1ccnc(C2CC2)n1` [Example 59, (S)-Pyrrolidine-1,2-dicarboxylic acid 2-amide 1-({4-methyl-5-[2-cyclopropyl-pyrimidin-4-yl]thiazol-2-yl-}-amide)], the IC50 was 64 nM in data set [1], 3500 nM in data set [2], 881 nM in data set [3] and 917 nM in data set [4].
In turn, `CCN(CC)c1nccc(-c2sc(NC(=O)N3CCC[C@H]3C(N)=O)nc2C)n1` [Example 63, (S)-Pyrrolidine-1,2-dicarboxylic acid 2-amide 1-{[5-(2-diethylamino-pyrimidin-4-yl)-4-methyl-thiazol-2-yl]-amide}] gave a PI3Ka/IC50 in data set [1] of 0.016 umol I-1. Also, the figures for the IC50 in data set [2], in data set [3] and in data set [4] were 1200 nM, 98 nM and 790 nM, respectively.
Consider `Cc1nc(NC(=O)N2CCC[C@H]2C(N)=O)sc1-c1ccnc(C(C)(C)C(F)(F)F)n1` [Example 64, (S)-Pyrrolidine-1,2-dicarboxylic acid 2-amide 1-({4-methyl-5-[2-(2,2,2-trifluoro-1,1-dimethyl-ethyl)-pyrimidin-4-yl]-thiazol-2-yl}-amide)], for which the IC50 in data set [1] amounted to 10 nM; in data set [2] it was 692 nM; in data set [3] it was 32 nM; in data set [4] it was 451 nM.
Taken in the same sequence, the figures for `Cc1nc(NC(=O)N2CCC[C@H]2C(N)=O)sc1-c1cncc(C2CC2)n1` [Example 66, (S)-Pyrrolidine-1,2-dicarboxylic acid 2-amide 1-{[5-(6-cyclopropyl-pyrazin-2-yl)-4-methyl-thiazol-2-yl]-amide}] were 13 nM, 2740 nM, 298 nM and 435 nM.
As usually defined, the melting point is the temperature of the solid-liquid transition. On to `Cc1nc(NC(=O)N2CCC[C@H]2C(N)=O)sc1-c1ccnc(CC2CC2)n1` [Example 70, (S)-Pyrrolidine-1,2-dicarboxylic acid 2-amide 1-{[5-(2-cyclopropylmethyl-pyrimidin-4-yl)-4-methyl-thiazol-2-yl]-amide}], for which the melting point was 220 to 222 °C.
For `Cc1nc(NC(=O)N2CCC[C@H]2C(N)=O)sc1-c1ccnc(C(C)(C)CF)n1` [Example 71, (S)-Pyrrolidine-1,2-dicarboxylic acid 2-amide 1-({5-[2-(2-fluoro-1,1-dimethylethyl)-pyrimidin-4-yl]-4-methyl-thiazol-2-yl}-amide)], the melting point was 187 to 190 °C.
On the same count and under the same terms, for `Cc1cc(-c2sc(NC(=O)N3CCC[C@H]3C(N)=O)nc2C)nc(C(C)(C)C)n1` [Example 72, (S)-Pyrrolidine-1,2-dicarboxylic acid 2-amide 1-{[5-(2-tert-butyl-6-methylpyrimidin-4-yl)-4-methyl-thiazol-2-yl]-amide}] the value was 197 to 199 °C.
